Experimental data as given in ChEMBL document CHEMBL1681769, “Tetrahydroquinolin-3-yl carbamate glucocorticoid receptor agonists with reduced PEPCK activation” (Bioorg Med Chem Lett, 2011).

Assays:
Glucocorticoid receptor [1] = target: T1, Glucocorticoid receptor (Homo sapiens, UniProt P04150); type: cell-based, NHDF
T1 sequence (P04150 whole entry): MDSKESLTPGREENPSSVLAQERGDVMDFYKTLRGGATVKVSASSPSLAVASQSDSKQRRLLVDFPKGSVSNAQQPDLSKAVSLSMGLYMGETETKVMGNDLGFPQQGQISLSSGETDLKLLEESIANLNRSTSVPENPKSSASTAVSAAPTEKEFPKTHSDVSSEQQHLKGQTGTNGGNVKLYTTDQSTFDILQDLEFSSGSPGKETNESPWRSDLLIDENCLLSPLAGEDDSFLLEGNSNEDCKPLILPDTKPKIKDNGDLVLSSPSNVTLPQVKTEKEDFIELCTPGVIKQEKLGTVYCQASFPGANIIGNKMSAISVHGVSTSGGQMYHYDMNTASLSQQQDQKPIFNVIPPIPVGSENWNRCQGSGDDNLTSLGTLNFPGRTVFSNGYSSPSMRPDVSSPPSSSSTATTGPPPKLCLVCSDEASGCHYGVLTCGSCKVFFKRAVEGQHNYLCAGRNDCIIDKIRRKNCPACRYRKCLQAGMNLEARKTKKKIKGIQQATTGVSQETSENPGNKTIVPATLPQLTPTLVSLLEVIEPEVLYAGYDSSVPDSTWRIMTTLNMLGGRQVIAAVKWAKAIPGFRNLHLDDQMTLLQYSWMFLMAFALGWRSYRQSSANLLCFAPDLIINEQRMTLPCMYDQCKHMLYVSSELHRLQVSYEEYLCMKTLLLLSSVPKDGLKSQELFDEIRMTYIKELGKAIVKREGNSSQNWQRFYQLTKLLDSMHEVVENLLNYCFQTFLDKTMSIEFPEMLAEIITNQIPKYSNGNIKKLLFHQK
Description: Transrepression activity at GR expressed in NHDF cells assessed as IL-1beta-mediated IL-6 transcription by ELISA

Glucocorticoid receptor [2] = target: T1, Glucocorticoid receptor; type: cell-based, HepG2
Description: Transrepression activity at GR expressed in IL-1beta- and TNFalpha-stimulated HepG2 cells assessed as inhibition of NFKB- or AP-1 mediated E-selectin transcription by luciferase reporter gene assay

Glucocorticoid receptor [3] = target: T1, Glucocorticoid receptor; type: functional, cell-based, CV-1
Description: Agonist activity at GR expressed in african green monkey CV1 cells transfected with luciferase gene linked to MMTV promoter assessed as induction of luciferase transactivation activity

Glucocorticoid receptor [4] = target: T1, Glucocorticoid receptor
Description: Displacement of radiolabeled Dexamethasone from GR

Glucocorticoid receptor [5] = target: T1, Glucocorticoid receptor; type: functional, cell-based, H4IIEC3
Description: Agonist activity at GR expressed in rat H4IIEC3 cells assessed as induction of PEPCK transactivation by luciferase reporter gene assay

Progesterone receptor = target: T2, Progesterone receptor (Homo sapiens, UniProt P06401); assay: Binding affinity to progesterone receptor
T2 sequence (P06401 whole entry): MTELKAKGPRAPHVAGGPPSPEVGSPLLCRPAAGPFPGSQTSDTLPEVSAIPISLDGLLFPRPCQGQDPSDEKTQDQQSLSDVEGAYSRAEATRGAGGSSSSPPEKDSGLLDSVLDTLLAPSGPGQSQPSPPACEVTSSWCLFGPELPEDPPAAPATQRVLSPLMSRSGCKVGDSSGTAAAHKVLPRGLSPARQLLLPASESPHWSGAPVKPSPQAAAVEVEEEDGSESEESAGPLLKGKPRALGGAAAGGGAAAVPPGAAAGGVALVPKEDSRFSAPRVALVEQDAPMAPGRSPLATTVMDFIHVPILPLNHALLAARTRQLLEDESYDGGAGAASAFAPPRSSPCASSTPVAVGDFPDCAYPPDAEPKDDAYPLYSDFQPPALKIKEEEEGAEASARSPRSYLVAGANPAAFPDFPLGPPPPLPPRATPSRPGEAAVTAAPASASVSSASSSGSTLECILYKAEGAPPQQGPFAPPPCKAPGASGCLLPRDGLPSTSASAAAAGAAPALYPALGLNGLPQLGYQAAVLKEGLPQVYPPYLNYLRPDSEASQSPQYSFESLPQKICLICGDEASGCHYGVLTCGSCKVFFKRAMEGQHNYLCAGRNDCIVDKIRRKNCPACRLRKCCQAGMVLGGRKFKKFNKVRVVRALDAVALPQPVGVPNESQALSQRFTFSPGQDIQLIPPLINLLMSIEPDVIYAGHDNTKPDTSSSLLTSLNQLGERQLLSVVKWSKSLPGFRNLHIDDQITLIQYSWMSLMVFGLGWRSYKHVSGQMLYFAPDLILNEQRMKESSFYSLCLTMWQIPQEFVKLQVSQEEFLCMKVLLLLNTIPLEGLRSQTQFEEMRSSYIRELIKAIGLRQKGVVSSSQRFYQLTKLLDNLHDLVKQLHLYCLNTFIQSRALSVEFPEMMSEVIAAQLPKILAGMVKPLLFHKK

[6] = target: T3, Mineralocorticoid receptor (Homo sapiens, UniProt P08235); assay: Binding affinity to mineralocorticoid receptor
T3 sequence (P08235 whole entry): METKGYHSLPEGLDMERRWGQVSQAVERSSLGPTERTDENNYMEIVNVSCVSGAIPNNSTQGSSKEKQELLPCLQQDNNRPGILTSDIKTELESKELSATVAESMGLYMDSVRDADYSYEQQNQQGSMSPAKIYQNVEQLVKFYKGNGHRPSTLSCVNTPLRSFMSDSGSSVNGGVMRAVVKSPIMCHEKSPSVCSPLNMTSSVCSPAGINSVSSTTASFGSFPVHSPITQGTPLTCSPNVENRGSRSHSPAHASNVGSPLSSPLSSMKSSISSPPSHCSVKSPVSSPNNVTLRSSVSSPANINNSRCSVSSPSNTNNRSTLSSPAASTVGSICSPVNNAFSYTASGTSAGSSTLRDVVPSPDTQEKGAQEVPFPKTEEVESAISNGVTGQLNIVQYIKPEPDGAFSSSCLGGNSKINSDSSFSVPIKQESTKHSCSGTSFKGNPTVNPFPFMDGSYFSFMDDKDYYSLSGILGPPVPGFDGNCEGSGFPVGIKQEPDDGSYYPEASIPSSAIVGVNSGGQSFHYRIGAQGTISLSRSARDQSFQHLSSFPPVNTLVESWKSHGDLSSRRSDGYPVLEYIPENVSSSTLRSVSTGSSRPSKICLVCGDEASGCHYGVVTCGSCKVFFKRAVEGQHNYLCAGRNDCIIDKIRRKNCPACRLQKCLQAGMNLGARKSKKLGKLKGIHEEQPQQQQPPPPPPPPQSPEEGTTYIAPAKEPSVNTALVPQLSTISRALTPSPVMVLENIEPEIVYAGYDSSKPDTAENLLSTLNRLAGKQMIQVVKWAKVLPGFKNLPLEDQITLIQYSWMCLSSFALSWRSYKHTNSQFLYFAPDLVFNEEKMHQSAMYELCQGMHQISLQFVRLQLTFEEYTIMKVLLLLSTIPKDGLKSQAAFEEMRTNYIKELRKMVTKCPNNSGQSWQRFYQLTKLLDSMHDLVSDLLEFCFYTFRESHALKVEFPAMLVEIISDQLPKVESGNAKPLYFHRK

Row | IC50 (Glucocorticoid receptor [1]) | IC50 (Glucocorticoid receptor [2]) | EC50 (Glucocorticoid receptor [3]) | Ki (Glucocorticoid receptor [4]) | EC50 (Glucocorticoid receptor [5]) | Ki (Progesterone receptor) | Ki [6] | SMILES
1 | > 1000 nM | 40 nM | 105 nM | 6.2 nM |  |  |  | C[C@H]1c2c(cc(F)c(-c3cccc4cc[nH]c34)c2F)NC(C)(C)[C@@H]1OC(=O)Nc1ccccc1
2 | 33 nM | 9.1 nM | 7.6 nM | 7.6 nM | 379 nM |  |  | C[C@H]1c2c(cc(F)c(-c3cccc4c(Cl)c[nH]c34)c2F)NC(C)(C)[C@@H]1OC(=O)Nc1ccccc1
3 | > 1000 nM | > 1000 nM | > 1000 nM | 14.3 nM |  |  |  | C[C@H]1c2c(cc(F)c(-c3cccc4cc[nH]c34)c2F)NC(C)(C)[C@@H]1OC(=O)N(C)c1ccccc1
4 | 31 nM | 7.5 nM | 11 nM | 11.6 nM | 687 nM |  |  | COc1ccc(NC(=O)O[C@@H]2[C@@H](C)c3c(cc(F)c(-c4cccc5cc[nH]c45)c3F)NC2(C)C)cc1Cl
5 | 12 nM | 5.7 nM | 5.8 nM | 6.7 nM | 283 nM |  |  | COc1ccc(NC(=O)O[C@@H]2[C@@H](C)c3c(cc(F)c(-c4cccc5c(Cl)c[nH]c45)c3F)NC2(C)C)cc1Cl
6 | 50 nM | 8.5 nM | 18 nM | 12.2 nM | 874 nM |  |  | C[C@H]1c2c(cc(F)c(-c3cccc4cc[nH]c34)c2F)NC(C)(C)[C@@H]1OC(=O)Nc1ccc2c(c1)OCO2
7 | 16 nM | 10 nM | 21 nM | 16.1 nM |  |  |  | C[C@H]1c2c(cc(F)c(-c3cccc4cc[nH]c34)c2F)NC(C)(C)[C@@H]1OC(=O)Nc1ccc(C#N)cc1
8 | 5 nM | 8.1 nM | 5.1 nM | 13.7 nM | 272 nM |  |  | C[C@H]1c2c(cc(F)c(-c3cccc4c(Cl)c[nH]c34)c2F)NC(C)(C)[C@@H]1OC(=O)Nc1ccc(C#N)cc1
9 | 29 nM | 44 nM | 178 nM | 70 nM |  |  |  | C[C@H]1c2c(cc(F)c(-c3cccc4cc[nH]c34)c2F)NC(C)(C)[C@@H]1OC(=O)Nc1ccc(Cl)cc1
10 | 16 nM | 29 nM | 15 nM | 30 nM | 267 nM |  |  | COC(=O)c1ccc(NC(=O)O[C@@H]2[C@@H](C)c3c(cc(F)c(-c4cccc5cc[nH]c45)c3F)NC2(C)C)cc1
11 | 39 nM | 8.4 nM | 3.5 nM | 5.1 nM | 361 nM |  |  | C[C@H]1c2c(cc(F)c(-c3cccc4cc[nH]c34)c2F)NC(C)(C)[C@@H]1OC(=O)Nc1ccc(N(C)C)cc1
12 |  |  |  |  | 98 nM |  |  | C[C@H]1c2c(cc(F)c(-c3cccc4cc[nH]c34)c2F)NC(C)(C)[C@@H]1O (racemic)
13 | > 1000 nM | 10 nM | 39 nM | 3 nM | 199 nM |  |  | CNC(=O)O[C@@H]1[C@@H](C)c2c(cc(F)c(-c3cccc4cc[nH]c34)c2F)NC1(C)C (racemic)
14 | 52 nM | 12 nM | 21 nM | 2.2 nM | 463 nM |  |  | CNC(=O)O[C@@H]1[C@@H](C)c2c(cc(F)c(-c3cccc4c(Cl)c[nH]c34)c2F)NC1(C)C (racemic)
15 | 40 nM | 44 nM | 17 nM | 6.8 nM | 454 nM | 160 nM | 656 nM | C[C@H]1c2c(cc(F)c(-c3cccc4c(Cl)c[nH]c34)c2F)NC(C)(C)[C@@H]1OC(=O)NCc1ccccc1 (racemic)
16 | 17 nM | 45 nM | 89 nM | 7.8 nM | 361 nM | 213 nM | 378 nM | CC(C)NC(=O)O[C@@H]1[C@@H](C)c2c(cc(F)c(-c3cccc4c(Cl)c[nH]c34)c2F)NC1(C)C (racemic)
17 | 23 nM | 15 nM | 70 nM | 4.3 nM | 435 nM | 93 nM | 2250 nM | C[C@H]1c2c(cc(F)c(-c3cccc4c(Cl)c[nH]c34)c2F)NC(C)(C)[C@@H]1OC(=O)NC1CCCCC1 (racemic)
18 |  | > 1000 nM | > 1000 nM | 132 nM |  |  |  | C[C@H]1c2c(cc(F)c(-c3cccc4cc[nH]c34)c2F)NC(C)(C)[C@@H]1OC(=O)N1CCCCC1 (racemic)
19 | 31 nM | 23 nM | 16 nM | 2.9 nM | 182 nM | 231 nM | 1110 nM | CC(=O)c1ccc(NC(=O)O[C@@H]2[C@@H](C)c3c(cc(F)c(-c4cccc5cc[nH]c45)c3F)NC2(C)C)cc1 (racemic)
20 | 38 nM | 13 nM | 24 nM | 13.7 nM | 287 nM | 662 nM | 1470 nM | C[C@H]1c2c(cc(F)c(-c3cccc4cc[nH]c34)c2F)NC(C)(C)[C@@H]1OC(=O)Nc1cccc(C#N)c1 (racemic)
21 | 22 nM | 49 nM | 29 nM | 9.4 nM | 333 nM | 680 nM | 3170 nM | CC(=O)c1cccc(NC(=O)O[C@@H]2[C@@H](C)c3c(cc(F)c(-c4cccc5cc[nH]c45)c3F)NC2(C)C)c1 (racemic)
